# “And” between values parts separate entries of the source, which are not always exact repeats. Equal entries are not always repeated.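 Interpolation was linear, between the two tested concentrations surrounding the appropriate level; five concentrations were tested over 48 hours in 96-well plates. At the GI50, growth is halved. TGI marks complete inhibition of growth.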
# Experiments:
# Assay in all cases: DTP human tumour cell line panel, 48 h
# ACHN renal = system: ACHN renal
# MOLT-4 leukemia = system: MOLT-4 leukemia
# M14 melanoma = system: M14 melanoma
# EKVX NSCLC = system: EKVX NSCLC
# UO-31 renal = system: UO-31 renal
# LOX IMVI melanoma = system: LOX IMVI melanoma
# OVCAR-5 ovarian = system: OVCAR-5 ovarian
# CAKI-1 renal = system: CAKI-1 renal
SMILES,GI50 (ACHN renal) [µM],TGI (ACHN renal) [µM],GI50 (MOLT-4 leukemia) [µM],TGI (MOLT-4 leukemia),GI50 (M14 melanoma),TGI (M14 melanoma),GI50 (EKVX NSCLC),TGI (EKVX NSCLC),GI50 (UO-31 renal),TGI (UO-31 renal) [µM],GI50 (LOX IMVI melanoma),TGI (LOX IMVI melanoma),GI50 (OVCAR-5 ovarian),TGI (OVCAR-5 ovarian) [µM],GI50 (CAKI-1 renal) [µM],TGI (CAKI-1 renal)
OCc1ccc(-c2csc(-c3ccc(CO)o3)c2)o1,43.9,> 100,20.7,60.1 µM,30.6 µM,> 100 µM,21.3 µM,> 89.6 µM,49.7 µM,> 100,66.5 µM,> 100 µM,0.199 µM,1.52,41.5,> 100 µM
CCn1c(-c2nonc2N)nc2c(C#CC(C)(C)O)ncc(OC3CCNCC3)c21,> 25,> 25,6.32,> 25 µM,21.6 µM,> 25 µM,> 25 µM,> 25 µM,> 25 µM,> 25,8.5 µM,> 25 µM,> 25 µM,> 25,> 25,> 25 µM
O=C(CCCn1c2c(sc3ccccc32)c(=O)n2nnc(-c3ccccc3)c12)NCCc1cnc[nH]1,1.37,2.94,0.815,> 100 µM,–,–,3.52 µM,18.6 µM,1.42 µM,2.95,0.28 µM,2.49 µM,0.0751 µM,1.51,–,–
COc1ccc(-c2cc(/C=C3\C(=O)Nc4cc(Cl)ccc43)[nH]n2)cc1,5.49,> 100,4.17,> 100 µM,2.7 µM,> 100 µM,–,–,3.49 µM,> 100,4.36 µM,> 100 µM,5.89 µM,> 100,1.63,21.6 µM
C/C(CCC(=O)O)=N/Nc1ccc([N+](=O)[O-])cc1,2.19,> 100,4.27,> 100 µM,1.53 µM,> 100 µM,28.5 µM,> 100 µM,3.27 µM,> 100,1.84 µM,> 100 µM,> 100 µM,> 100,3.69,> 100 µM
CN(C)C1CCN(Cc2ccc(NC(=O)c3cncc(C#Cc4cnc(N)c5ncccc45)c3)cc2C(F)(F)F)CC1,0.828,1.51,1.55,5.57 µM,0.962 µM,1.87 µM,8.46 µM,18.7 µM,0.999 µM,1.78,8.01 µM,20 µM,8.21 µM,15.6,8.44,15.6 µM
CN1CC=C(c2cc(NC(=O)Nc3ccc(Oc4ccnc(NC(=O)C5CC5)c4)c(F)c3)cc(C(F)(F)F)c2)CC1,0.968,2.67,0.202,0.943 µM,0.524 µM,1.48 µM,0.359 µM,1.91 µM,1.58 µM,3.57,0.181 µM,0.645 µM,0.289 µM,2.44,–,–
COc1cc2c(c(O)c1Cl)C(=O)c1c(O)cc(C[C@H](C)O)cc1[C@H]2[C@H]1c2cc(C[C@H](C)O)cc(O)c2C(=O)c2c1cc(OC)c(Cl)c2O,–,–,–,75 µM and > 100 µM,–,75 µM and > 100 µM,–,75 µM and 90.9 µM,–,–,–,13.2 µM and > 100 µM,–,–,–,11.4 µM and > 100 µM
Cc1ccc([Se](=C(C(=O)c2ccccc2)C(=O)c2ccccc2)c2ccc(C)cc2)cc1,–,77.8,–,43.3 µM,–,> 100 µM,–,–,–,> 100,–,–,–,> 100,–,57.7 µM
O=C(Cn1c(C(=O)c2ccc(Cl)cc2)nc(-c2ccc(Cl)cc2)c1-c1ccc(Cl)cc1)c1ccccc1,> 100,> 100,> 100,> 100 µM,> 100 µM,> 100 µM,> 100 µM,> 100 µM,> 100 µM,> 100,> 100 µM,> 100 µM,> 100 µM,> 100,> 100,> 100 µM
O=Cc1cccc2ccc3ccccc3c12,–,83.8,–,–,–,49.4 µM,–,–,–,> 100,–,45.9 µM,–,–,–,46.5 µM
N#CC(C#N)=NNc1ccc2cn[nH]c2c1,–,> 100,–,54.2 µM,–,> 100 µM,–,> 100 µM,–,28.1,–,> 100 µM,–,> 100,–,96.4 µM
O=C(CN1CCN(Cc2ccccc2Cl)CC1)NC1CC(=O)c2c(Br)sc(Br)c21 (configuration not stated),35.1,> 100,27.1,85.3 µM,17.2 µM,31.7 µM,21.7 µM,42 µM,17.4 µM,31.8,18.6 µM,35.8 µM,51.4 µM,> 100,19.9,37.6 µM
COc1cc(-c2cc3ncccc3c3nc(OCCN(C)C)c4cccnc4c23)cc(OC)c1OC,0.281,1.54,0.314,2.71 µM,0.485 µM,10.4 µM,0.513 µM,3.24 µM,0.28 µM,1.32,0.275 µM,1.26 µM,1.34 µM,3.68,0.468,3.14 µM
O=C([O][Hg][c]1ccccc1)c1ccccc1,1.57,2.99,1.38,5.7 µM,1.36 µM,2.94 µM,–,–,1.47 µM,2.89,1.38 µM,3.05 µM,2.48 µM,5.56,1.8,3.66 µM
O=C1/C(=C/c2ccc([N+](=O)[O-])s2)Oc2cc(Cl)ccc21,0.475,1.84,–,–,–,–,–,–,0.317 µM,1.22,–,–,–,–,–,–
Fc1cc(F)c(F)c(S)c1F,–,> 100,–,66 µM,–,> 100 µM,–,55.2 µM,–,> 100,–,> 100 µM,–,> 100,–,> 100 µM
Cc1ccccc1C1=C(c2cn(C)c3ccccc23)C(=O)NC1=O,7.33,> 25,10.8,> 25 µM,> 25 µM,> 25 µM,–,–,> 25 µM,> 25,14.9 µM,> 25 µM,> 23.6 µM,> 25,10.2,> 25 µM
CC1(C)CC(=O)C=C(/C=C/Sc2c(Cl)c(Cl)nc(Cl)c2Cl)C1,11.1,23.3,4.61,> 100 µM,11.7 µM,24.2 µM,–,–,10 µM,33.4,3.26 µM,12.9 µM,14.5 µM,29.7,2.23,5.4 µM

SMILES,GI50 (ACHN renal) [µM],TGI (ACHN renal) [µM],GI50 (MOLT-4 leukemia) [µM],TGI (MOLT-4 leukemia),GI50 (M14 melanoma),TGI (M14 melanoma),GI50 (EKVX NSCLC),TGI (EKVX NSCLC),GI50 (UO-31 renal),TGI (UO-31 renal) [µM],GI50 (LOX IMVI melanoma),TGI (LOX IMVI melanoma),GI50 (OVCAR-5 ovarian),TGI (OVCAR-5 ovarian) [µM],GI50 (CAKI-1 renal) [µM],TGI (CAKI-1 renal)
CCc1ccccc1NC(=O)C(C#N)C1=C(Cl)C(=O)c2ccccc2C1=O (configuration not stated),–,29.9,–,> 100 µM,–,21.8 µM,–,33.7 µM,–,26.6,–,26.9 µM,–,35.2,–,45.6 µM
Cc1ccc(-c2nc3nc(-c4ccc(F)cc4)nc(N4CCNCC4)c3o2)cc1,1.79,3.19,2.1,4.42 µM,1.92 µM,3.79 µM,4.53 µM,17.3 µM,1.46 µM,2.79,1.66 µM,3.07 µM,1.97 µM,4.54,1.55,2.92 µM
COC(=O)Oc1nn(C(=O)OC)c(=O)c2ccccc12,–,> 100,–,> 100 µM,–,> 100 µM,–,> 100 µM,–,> 100,–,> 100 µM,–,> 100,–,> 100 µM
Cc1ccc([P+](Cc2ccccc2)(c2ccccc2)c2ccccc2)cc1,3.95,> 100,3.32,14 µM,2.78 µM,16.4 µM,–,–,10.3 µM,67.7,2.48 µM,14.3 µM,3.42 µM,> 100,5.83,> 100 µM
COc1ccc(-c2coc3cc(O)ccc3c2=O)cc1,–,> 100,–,> 100 µM,–,> 100 µM,–,–,–,> 100,–,–,–,> 100,–,> 100 µM
CC1=C/C=C/C(=O)O[C@@H]([C@H](C)[C@H](O)[C@@H](C)NC(=O)C(C)C)[C@H](C)/C=C/C(C)=C/[C@H]2C=CCC[C@@]2(C)\C=C\1,0.136,6.98,8.41,31.6 µM,0.0377 µM and 0.0293 µM,0.216 µM and 0.125 µM,1.65 µM and 3.94 µM,25.1 µM,0.244 µM and 0.396 µM,7.85,0.0479 µM and 0.0688 µM,0.307 µM and 0.178 µM,8.43 µM and 5.43 µM,14.3,–,–
N#CC(C#N)=CNCCN1CCN(C=C(C#N)C#N)CC1,–,> 100,–,> 100 µM,–,> 100 µM,–,> 100 µM,–,> 100,–,> 100 µM,–,> 100,–,> 100 µM
C[C@H](c1ccc(F)cc1CCCC(=O)O)N(c1cc(F)ccc1F)S(=O)(=O)c1ccc(Cl)cc1,30.8,> 100,22.8,> 83 µM,22.6 µM,> 80.2 µM,30 µM,> 100 µM,25.4 µM,> 100,29.2 µM,> 100 µM,43.8 µM,> 100,17.6,> 81.2 µM
COC(=O)C12CCC(C)(C)CC1C1=CCC3C4(C)CC(O)C(O)C(C)(C(=O)OC)C4CCC3(C)C1(CO)CC2 (configuration not stated),–,27.2,–,34.4 µM,–,19.5 µM,–,44.1 µM,–,–,–,28.1 µM,–,31.8,–,27.8 µM
ClCCCSSCCCCl,–,> 100,–,7.42 µM,–,> 100 µM,–,> 100 µM,–,> 100,–,> 81.9 µM,–,> 100,–,> 100 µM
C[C@@H](N)COc1ccc(-c2cnc3ccc(N[C@H](C)c4cccc(F)c4)nn23)cc1,2.15,6.35,2,6.44 µM,1.49 µM,3 µM,2.71 µM,12.6 µM,1.94 µM,7.81,1.42 µM,2.72 µM,1.38 µM,4.54,2.87,11 µM
CS(=O)(=O)N1CCC(n2c(=O)c(Oc3ccc(F)cc3F)cc3cnc(NC4CCOCC4)nc32)CC1,> 25,> 25,> 25,> 25 µM,> 25 µM,> 25 µM,–,–,16.9 µM,> 25,> 25 µM,> 25 µM,> 25 µM,> 25,> 25,> 25 µM
COc1cc2c(NCCCCCO)ncnc2c(OC)c1OC,–,> 100,–,> 100 µM,–,> 100 µM,–,> 100 µM,–,> 100,–,> 100 µM,–,> 100,–,> 100 µM
COC1=CC(c2ccc[nH]2)=N/C1=C\c1[nH]c(C)c(C(=O)CCC(=O)Oc2ccc3c(c2)CCC2C3CC[C@]3(C)[C@@H](O)CC[C@@H]23)c1C (some centres not stated),1.94,6.7,–,–,2.1 µM,4.6 µM,–,–,1.59 µM,3.73,0.797 µM,2.57 µM,5.47 µM,> 100,2.38,> 100 µM
Oc1c(C(Nc2ccccn2)c2cccc(Oc3ccccc3)c2)ccc2cccnc12 (configuration not stated),0.41,7.2,0.436,> 100 µM,–,–,–,–,0.382 µM,3.11,0.468 µM,16.7 µM,0.515 µM,12.6,0.319,10 µM
CNC(=O)c1nn(C)c2c1C(C)(C)Cc1cnc(Nc3cccc(N4CCN(C)CC4)c3)nc1-2,0.0896,> 58.2,0.236,10.6 µM,0.204 µM,11.8 µM,–,–,0.0881 µM,1.96,0.178 µM,2.53 µM,0.372 µM,> 100,0.0636,1.9 µM
Cn1cc(C2=C(c3c4n(c5ccccc35)CCNC4)C(=O)NC2=O)c2ccccc21,7.93,> 25,11,> 25 µM,12.4 µM,> 25 µM,–,–,4.53 µM,> 22.2,11.3 µM,> 25 µM,> 25 µM,> 25,5.85,> 22.3 µM
CCCCCCCCCCCCCC[n+]1ccccc1,1.27,6.18,0.618,2.38 µM,0.459 µM,1.98 µM,–,–,1.42 µM,4.82,–,–,0.733 µM,2.35,0.833,5.43 µM

# — PubChem BioAssay (NCI)
